Measured values taken from patent publication US8633206B2, “Pyrrolo[2,3-D]pyrimidine compounds” (Pfizer Inc., priority 2009, dated 2014).

Key:
Format in all cases: biochemical
JAK2 = JAK2 (Homo sapiens (Human), UniProt O60674); assay: JAK enzymatic assay (peptide mobility shift), JAK2; conditions: recombinant JAK2 2 nM, JAKtide peptide, 150 minutes
JAK1 = JAK1 (Homo sapiens (Human), UniProt P23458); assay: JAK enzymatic assay (peptide mobility shift), JAK1; conditions: recombinant JAK1 20 nM, IRS-1 peptide, 240 minutes
Chain of JAK1 (P23458 whole entry): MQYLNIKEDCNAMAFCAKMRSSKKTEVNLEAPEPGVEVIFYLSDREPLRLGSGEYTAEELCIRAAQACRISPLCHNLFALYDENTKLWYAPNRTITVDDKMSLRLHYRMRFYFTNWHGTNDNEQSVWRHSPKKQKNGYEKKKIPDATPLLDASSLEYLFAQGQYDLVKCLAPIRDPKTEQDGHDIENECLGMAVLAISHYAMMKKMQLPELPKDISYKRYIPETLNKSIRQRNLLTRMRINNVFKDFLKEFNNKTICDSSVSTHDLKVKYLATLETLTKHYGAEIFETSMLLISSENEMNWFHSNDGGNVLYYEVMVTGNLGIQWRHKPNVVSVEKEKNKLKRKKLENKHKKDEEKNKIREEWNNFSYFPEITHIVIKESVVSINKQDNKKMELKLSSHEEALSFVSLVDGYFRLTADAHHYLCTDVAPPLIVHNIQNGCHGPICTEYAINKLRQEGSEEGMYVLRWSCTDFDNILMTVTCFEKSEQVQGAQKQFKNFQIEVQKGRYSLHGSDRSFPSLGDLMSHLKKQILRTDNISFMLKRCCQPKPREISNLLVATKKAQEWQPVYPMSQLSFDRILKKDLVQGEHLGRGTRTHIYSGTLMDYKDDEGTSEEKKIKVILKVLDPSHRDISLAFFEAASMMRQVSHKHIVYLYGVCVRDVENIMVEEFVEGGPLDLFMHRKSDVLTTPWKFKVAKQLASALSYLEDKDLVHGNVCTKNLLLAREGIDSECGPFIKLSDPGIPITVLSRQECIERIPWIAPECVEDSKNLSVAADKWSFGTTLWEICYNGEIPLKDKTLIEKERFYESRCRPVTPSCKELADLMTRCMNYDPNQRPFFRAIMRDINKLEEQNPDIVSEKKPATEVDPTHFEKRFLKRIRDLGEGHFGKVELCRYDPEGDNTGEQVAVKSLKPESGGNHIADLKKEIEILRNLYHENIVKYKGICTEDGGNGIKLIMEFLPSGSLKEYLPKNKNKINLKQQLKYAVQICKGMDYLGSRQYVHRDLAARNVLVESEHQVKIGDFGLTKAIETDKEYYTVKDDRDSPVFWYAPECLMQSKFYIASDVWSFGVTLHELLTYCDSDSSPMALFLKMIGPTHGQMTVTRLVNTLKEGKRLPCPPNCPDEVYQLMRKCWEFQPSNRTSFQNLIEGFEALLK

JAK3 = JAK3 (Homo sapiens (Human), UniProt P52333); assay: JAK enzymatic assay (peptide mobility shift), JAK3; conditions: recombinant JAK3 1 nM, JAKtide peptide, 90 minutes
Chain of JAK3 (P52333 781-1124): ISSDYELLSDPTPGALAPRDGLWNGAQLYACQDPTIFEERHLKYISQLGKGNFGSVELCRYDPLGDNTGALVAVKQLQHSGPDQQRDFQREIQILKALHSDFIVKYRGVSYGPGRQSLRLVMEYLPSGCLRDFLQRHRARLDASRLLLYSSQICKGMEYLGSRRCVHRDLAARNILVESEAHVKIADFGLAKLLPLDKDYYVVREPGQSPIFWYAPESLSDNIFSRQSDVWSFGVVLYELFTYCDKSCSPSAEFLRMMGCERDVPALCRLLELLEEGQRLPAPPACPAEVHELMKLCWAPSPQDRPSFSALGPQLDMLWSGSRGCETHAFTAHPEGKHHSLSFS

Chain of JAK2 (O60674 808-1132): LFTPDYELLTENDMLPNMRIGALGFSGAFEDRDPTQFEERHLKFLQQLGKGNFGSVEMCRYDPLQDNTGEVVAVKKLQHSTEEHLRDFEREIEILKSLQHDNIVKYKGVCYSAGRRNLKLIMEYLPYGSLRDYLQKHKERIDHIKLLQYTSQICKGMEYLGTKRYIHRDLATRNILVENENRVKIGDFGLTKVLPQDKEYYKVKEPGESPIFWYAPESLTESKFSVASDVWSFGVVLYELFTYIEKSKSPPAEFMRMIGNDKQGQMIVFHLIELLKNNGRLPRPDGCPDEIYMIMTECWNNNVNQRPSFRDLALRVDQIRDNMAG

Row | IC50 (JAK2) | IC50 (JAK1) | IC50 (JAK3) | SMILES
1 | 50.8 nM | 7.7 nM | 453 nM | CN(C)S(=O)(=O)C[C@H]1CCCN(S(=O)(=O)C[C@H]2CC[C@H](N(C)c3ncnc4[nH]ccc34)CC2)C1 [Example 57, N,N-dimethyl-1-{1-[({trans-4-[methyl(7H-pyrrolo[2,3-d]pyrimidin-4-yl)amino]-cyclohexyl}methyl)sulfonyl]piperidin-3-yl}-methanesulfonamide]
2 | 18 nM | 3.2 nM | 175 nM | CN(c1ncnc2[nH]ccc12)[C@H]1CC[C@H](CS(=O)(=O)N2CCC[C@H](O)C2)CC1 [Example 58, 1-[({trans-4-[methyl(7H-pyrrolo[2,3-d]pyrimidin-4-yl)-amino]cyclohexyl}-methyl)sulfonyl]piperidin-3-ol]
3 | 23.7 nM | 1.7 nM | 203 nM | CO[C@@H]1CCCN(S(=O)(=O)C[C@H]2CC[C@H](N(C)c3ncnc4[nH]ccc34)CC2)C1 [Example 60, N-(trans-4-{[(3-methoxy-piperidin-1-yl)sulfonyl]-methyl}cyclohexyl)-N-methyl-7H-pyrrolo[2,3-d]-pyrimidin-4-amine]
4 | 72.2 nM | 10.8 nM | 851 nM | C[C@H]1CCCN(S(=O)(=O)C[C@H]2CC[C@H](N(C)c3ncnc4[nH]ccc34)CC2)C1 [Example 61, N-methyl-N-(trans-4-{[(3-methylpiperidin-1-yl)sulfonyl]methyl}cyclo-hexyl)-7H-pyrrolo[2,3-d]-pyrimidin-4-amine]
5 | 20.1 nM | 2.4 nM | 233 nM | CN(c1ncnc2[nH]ccc12)[C@H]1CC[C@H](CS(=O)(=O)N2CCC[C@H](CO)C2)CC1 [Example 62, {1-[({trans-4-[methyl(7H-pyrrolo[2,3-d]pyrimidin-4-yl)amino]cyclohexyl}-methyl)sulfonyl]piperidin-3-yl}methanol]
6 | 50.7 nM | 8.88 nM | 554 nM | CN(c1ncnc2[nH]ccc12)[C@H]1CC[C@H](CS(=O)(=O)N2CCC[C@@](C)(CO)C2)CC1 [Example 63, {3-methyl-1-[({trans-4-[methyl(7H-pyrrolo[2,3-d]-pyrimidin-4-yl)amino]-cyclohexyl}methyl)sulfonyl]piperidin-3-yl}methanol]
7 | 32.1 nM | 2.71 nM | 263 nM | CN(c1ncnc2[nH]ccc12)[C@H]1CC[C@H](CS(=O)(=O)N2CCC[C@H](C#N)C2)CC1 [Example 64, 1-[({trans-4-[methyl(7H-pyrrolo[2,3-d]pyrimidin-4-yl)amino]cyclohexyl}-methyl)sulfonyl]piperidine-3-carbonitrile]
8 | 40.9 nM | 7.6 nM | 431 nM | CN(c1ncnc2[nH]ccc12)[C@H]1CC[C@H](CS(=O)(=O)N2CCC[C@@](C)(O)C2)CC1 [Example 65, 3-methyl-1-[({trans-4-[methyl(7H-pyrrolo[2,3-d]-pyrimidin-4-yl)amino]-cyclohexyl}methyl)sulfonyl] piperidin-3-ol]
9 | 22 nM | 3.1 nM | 128 nM | CN(c1ncnc2[nH]ccc12)[C@H]1CC[C@H](CS(=O)(=O)N2CCC[C@H](CS(N)(=O)=O)C2)CC1 [Example 66, 1-{1-[({trans-4-[methyl(7H-pyrrolo[2,3-d]pyrimidin-4-yl)amino]cyclohexyl}-methyl)sulfonyl]piperidin-3-yl}-methanesulfonamide]
10 | 92.2 nM | 20.6 nM | 573 nM | CN(c1ncnc2[nH]ccc12)[C@H]1CC[C@H](CS(=O)(=O)N2CCC[C@H](CS(C)(=O)=O)C2)CC1 [Example 67, N-methyl-N-{trans-4-[({3-[(methylsulfonyl)methyl]-piperidin-1-yl}sulfonyl)-methyl]cyclohexyl}-7H-pyrrolo[2,3-d]pyrimidin-4-amine]
11 | 41.8 nM | 11.9 nM | 468 nM | CO[C@@H]1CCN(S(=O)(=O)C[C@H]2CC[C@H](N(C)c3ncnc4[nH]ccc34)CC2)C1 [Example 68, N-[trans-4-({[(3R)-3-methoxypyrrolidin-1-yl]sulfonyl}methyl)cyclo-hexyl]-N-methyl-7H-pyrrolo[2,3-d]pyrimidin-4-amine]
12 | 56.2 nM | 9.55 nM | 370 nM | COC[C@H]1CCCN1S(=O)(=O)C[C@H]1CC[C@H](N(C)c2ncnc3[nH]ccc23)CC1 [Example 69, N-[trans-4-({[(2R)-2-(methoxymethyl)pyrrolidin-1-yl]sulfonyl}methyl)-cyclohexyl]-N-methyl-7H-pyrrolo[2,3-d]pyrimidin-4-amine]
13 | 36.4 nM | 20.8 nM | 319 nM | CN(c1ncnc2[nH]ccc12)[C@H]1CC[C@H](CS(=O)(=O)N2CC[C@H](F)C2)CC1 [Example 70, N-[trans-4-({[(3S)-3-fluoropyrrolidin-1-yl]sulfonyl}methyl)cyclo-hexyl]-N-methyl-7H-pyrrolo[2,3-d]pyrimidin-4-amine]
14 | 8.54 nM | 2.52 nM | 80.8 nM | CN(c1ncnc2[nH]ccc12)[C@H]1CC[C@H](CS(=O)(=O)N2C[C@@H](O)[C@@H](O)C2)CC1 [Example 71, (3R,4S)-1-[({trans-4-[methyl(7H-pyrrolo[2,3-d]-pyrimidin-4-yl)amino]-cyclohexyl}methyl)sulfonyl] pyrrolidine-3,4-diol]
15 | 39.6 nM | 5.92 nM | 173 nM | CN(c1ncnc2[nH]ccc12)[C@H]1CC[C@H](CS(=O)(=O)N2C[C@@H](O)[C@H](O)C2)CC1 [Example 72, (3R,4R)-1-[({trans-4-[methyl(7H-pyrrolo[2,3-d]-pyrimidin-4-yl)amino]-cyclohexyl}methyl)sulfonyl] pyrrolidine-3,4-diol]
16 | 22.5 nM | 1.69 nM | 138 nM | COC[C@@H]1CCN(S(=O)(=O)C[C@H]2CC[C@H](N(C)c3ncnc4[nH]ccc34)CC2)C1 [Example 73, N-[trans-4-({[3-(methoxy-methyl)pyrrolidin-1-yl]-sulfonyl}methyl)-cyclohexyl]-N-methyl-7H-pyrrolo[2,3-d]pyrimidin-4-amine]
17 | 55.2 nM | 17.3 nM | 495 nM | CC[C@@]1(CO)CCN(S(=O)(=O)C[C@H]2CC[C@H](N(C)c3ncnc4[nH]ccc34)CC2)C1 [Example 74, {3-ethyl-1-[({trans-4-[methyl(7H-pyrrolo[2,3-d]-pyrimidin-4-yl)amino]-cyclohexyl}methyl)sulfonyl]-pyrrolidin-3-yl}methanol]
18 | 62.2 nM | 19.1 nM | 399 nM | CN(c1ncnc2[nH]ccc12)[C@H]1CC[C@H](CS(=O)(=O)N2CC[C@H](NC(=O)C(F)(F)F)C2)CC1 [Example 75, 2,2,2-trifluoro-N-{(3S)-1-[({trans-4-[methyl(7H-pyrrolo[2,3-d]pyrimidin-4-yl)amino]cyclohexyl}methyl)-sulfonyl]pyrrolidin-3-yl}acetamide]
19 | 27.2 nM | 2.98 nM | 125 nM | CN(c1ncnc2[nH]ccc12)[C@H]1CC[C@H](CS(=O)(=O)N2CC[C@H](S(C)(=O)=O)C2)CC1 [Example 76, N-methyl-N-[trans-4-({[3-(methylsulfonyl)pyrrolidin-1-yl]sulfonyl}methyl)-cyclohexyl]-7H-pyrrolo[2,3-d]pyrimidin-4-amine]
20 | 50.2 nM | 10.1 nM | 644 nM | CN(C)C(=O)CO[C@@H]1CCN(S(=O)(=O)C[C@H]2CC[C@H](N(C)c3ncnc4[nH]ccc34)CC2)C1 [Example 77, N,N-dimethyl-2-({(3R)-1-[({trans-4-[methyl(7H-pyrrolo[2,3-d]pyrimidin-4-yl)amino]cyclohexyl}-methyl)sulfonyl]pyrrolidin-3-yl}oxy)acetamide]
21 | 34.3 nM | 13.8 nM | 275 nM | CN(c1ncnc2[nH]ccc12)[C@H]1CC[C@H](CS(=O)(=O)N2C[C@@H](F)[C@H](F)C2)CC1 [Example 78, N-[trans-4-({[(3R,4R)-3,4-difluoropyrrolidin-1-yl]sulfonyl}methyl)cyclo-hexyl]-N-methyl-7H-pyrrolo[2,3-d]pyrimidin-4-amine]
22 | 55.6 nM | 14.4 nM | 580 nM | CN(c1ncnc2[nH]ccc12)[C@H]1CC[C@H](CS(=O)(=O)N2C[C@](C)(CO)[C@](C)(CO)C2)CC1 [Example 79, {(3R,4S)-3,4-dimethyl-1-[({trans-4-[methyl(7H-pyrrolo[2,3-d]pyrimidin-4-yl)amino]cyclohexyl}methyl)-sulfonyl]pyrrolidine-3,4-diyl}dimethanol]
23 | 18.5 nM | 3.03 nM | 205 nM | C[C@H]1CN(S(=O)(=O)C[C@H]2CC[C@H](N(C)c3ncnc4[nH]ccc34)CC2)C[C@@H]1CO [Example 80, {(3R,4R)-4-methyl-1-[({trans-4-[methyl(7H-pyrrolo[2,3-d]pyrimidin-4-yl)amino]cyclohexyl}-methyl)sulfonyl]pyrrolidin-3-yl}methanol]
24 | 24.8 nM | 2.78 nM | 90.6 nM | CNS(=O)(=O)[C@H]1CCN(S(=O)(=O)C[C@H]2CC[C@H](N(C)c3ncnc4[nH]ccc34)CC2)C1 [Example 81, N-methyl-1-[({trans-4-[methyl(7H-pyrrolo[2,3-d]-pyrimidin-4-yl)amino]-cyclohexyl}methyl)sulfonyl] pyrrolidine-3-sulfonamide]
25 | 17.4 nM | 7.34 nM | 146 nM | CN(c1ncnc2[nH]ccc12)[C@H]1CC[C@H](CS(=O)(=O)N2CC[C@H](S(=O)(=O)Cc3ccccc3)C2)CC1 [Example 82, N-[trans-4-({[3-(benzyl-sulfonyl)pyrrolidin-1-yl]sulfonyl}-methyl)-cyclohexyl]-N-methyl-7H-pyrrolo[2,3-d]pyrimidin-4-amine]
26 | 16.7 nM | 4.79 nM | 133 nM | CN(c1ncnc2[nH]ccc12)[C@H]1CC[C@H](CS(=O)(=O)N2CC[C@H](S(=O)(=O)CCc3ccccc3)C2)CC1 [Example 83, N-methyl-N-{trans-4-[({3-[(2-phenylethyl)-sulfonyl]pyrrolidin-1-yl}sulfonyl)methyl]cyclo-hexyl}-7H-pyrrolo[2,3-d]pyrimidin-4-amine]
